# Test results: paper PMC4162805 (European journal of medicinal chemistry, 2014)
# “Also recorded” adds a separate entry of the source.
# Biological target: δ-opioid receptor (DOR) (Homo sapiens, UniProt P41143)
# Assay: Radioligand binding at DOR against [3H]DADLE
# Conditions: not given
# Sequence of δ-opioid receptor (DOR) (P41143 whole entry): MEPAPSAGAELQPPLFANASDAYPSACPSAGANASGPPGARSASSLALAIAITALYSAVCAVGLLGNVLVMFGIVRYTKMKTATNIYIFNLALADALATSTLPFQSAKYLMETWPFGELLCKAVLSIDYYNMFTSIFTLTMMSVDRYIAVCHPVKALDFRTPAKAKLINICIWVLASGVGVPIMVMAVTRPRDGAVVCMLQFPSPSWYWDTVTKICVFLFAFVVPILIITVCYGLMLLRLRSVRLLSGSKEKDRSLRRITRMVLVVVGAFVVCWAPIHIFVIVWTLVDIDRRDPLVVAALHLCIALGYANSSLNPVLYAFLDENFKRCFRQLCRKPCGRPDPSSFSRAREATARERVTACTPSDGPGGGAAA
row,SMILES,affinity for DOR (in words)
1,"COC(=O)[C@@H]1C[C@H](OC(=O)/C=C/c2cc(OC)c(OC)c(OC)c2)C(=O)[C@H]2[C@@]1(C)CC[C@H]1C(=O)O[C@H](c3ccoc3)C[C@]21C [5f, 2-O-(3″,4″,5″-Trimethoxycinnamoyl)salvinorin B]",no appreciable affinity

# Biological target: T1, κ-opioid receptor (KOR) (Homo sapiens, UniProt P41145)
# Assay: not given
# Type: binding
# Conditions: not given
# T1 sequence (P41145 whole entry): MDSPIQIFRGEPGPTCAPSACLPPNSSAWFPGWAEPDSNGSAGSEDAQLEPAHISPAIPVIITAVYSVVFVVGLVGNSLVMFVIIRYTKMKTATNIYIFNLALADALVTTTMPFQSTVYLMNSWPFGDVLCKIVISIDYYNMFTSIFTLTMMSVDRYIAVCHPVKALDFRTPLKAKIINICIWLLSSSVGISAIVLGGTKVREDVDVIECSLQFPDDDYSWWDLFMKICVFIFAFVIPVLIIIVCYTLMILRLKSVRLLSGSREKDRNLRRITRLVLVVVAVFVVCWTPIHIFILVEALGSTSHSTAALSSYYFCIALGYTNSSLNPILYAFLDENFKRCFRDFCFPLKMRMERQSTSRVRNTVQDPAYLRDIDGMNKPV
SMILES,Selectivity DOR/KOR,fold reduced KOR affinity compared to 1,Selectivity MOR/KOR,fold reduced KOR affinity compared to 4a,fold increased KOR affinity compared to 4a,affinity for KOR (in words)
"C=CC(=O)O[C@H]1C[C@@H](C(=O)OC)[C@]2(C)CC[C@H]3C(=O)O[C@H](c4ccoc4)C[C@]3(C)[C@H]2C1=O [4a, 2-O-Acryloylsalvinorin B]",>552,6 fold,–,–,–,–
"C=C(C)C(=O)O[C@H]1C[C@@H](C(=O)OC)[C@]2(C)CC[C@H]3C(=O)O[C@H](c4ccoc4)C[C@]3(C)[C@H]2C1=O [4b, 2-O-Methacryloylsalvinorin B]",–,–,>293,–,–,–
"COC(=O)[C@@H]1C[C@H](OC(=O)C=C(C)C)C(=O)[C@H]2[C@@]1(C)CC[C@H]1C(=O)O[C@H](c3ccoc3)C[C@]21C [4c, 2-O-(3′,3′-Dimethylacryloyl)salvinorin B]",–,–,–,21 fold,–,–
"C=C(C)CC(=O)O[C@H]1C[C@@H](C(=O)OC)[C@]2(C)CC[C@H]3C(=O)O[C@H](c4ccoc4)C[C@]3(C)[C@H]2C1=O [4d, 2-O-(3′-Methylbut-3′-enoyl)salvinorin B]",>1666,–,–,–,3 fold,–
"C/C=C/C(=O)O[C@H]1C[C@@H](C(=O)OC)[C@]2(C)CC[C@H]3C(=O)O[C@H](c4ccoc4)C[C@]3(C)[C@H]2C1=O [4e, 2-O-Crotonoylsalvinorin B]",>395,–,–,–,–,–
"C/C=C(\C)C(=O)O[C@H]1C[C@@H](C(=O)OC)[C@]2(C)CC[C@H]3C(=O)O[C@H](c4ccoc4)C[C@]3(C)[C@H]2C1=O [4g, 2-O-(2′,3′-Dimethylacryloyl)salvinorin B]",>65,–,>65,8 fold,–,–
"COC(=O)[C@@H]1C[C@H](OC(=O)/C=C/c2ccccc2)C(=O)[C@H]2[C@@]1(C)CC[C@H]1C(=O)O[C@H](c3ccoc3)C[C@]21C [5a, 2-O-Cinnamoylsalvinorin B]",–,–,–,–,2 fold,–
"COC(=O)[C@@H]1C[C@H](OC(=O)/C=C/c2ccccc2OC)C(=O)[C@H]2[C@@]1(C)CC[C@H]1C(=O)O[C@H](c3ccoc3)C[C@]21C [5b, 2-O-(2″-Methoxycinnamoyl)salvinorin B]",>154,–,>154,–,–,–
"COC(=O)[C@@H]1C[C@H](OC(=O)/C=C/c2ccc(OC)cc2)C(=O)[C@H]2[C@@]1(C)CC[C@H]1C(=O)O[C@H](c3ccoc3)C[C@]21C [5c, 2-O-(4″-Methoxycinnamoyl)salvinorin B]",>74,–,>74,–,–,–
"COC(=O)[C@@H]1C[C@H](OC(=O)/C=C/c2cc(OC)ccc2OC)C(=O)[C@H]2[C@@]1(C)CC[C@H]1C(=O)O[C@H](c3ccoc3)C[C@]21C [5d, 2-O-(2″,5″-Dimethoxycinnamoyl)salvinorin B]",>17,–,>17,–,–,–
"COC(=O)[C@@H]1C[C@H](OC(=O)/C=C/c2ccc(OC)cc2OC)C(=O)[C@H]2[C@@]1(C)CC[C@H]1C(=O)O[C@H](c3ccoc3)C[C@]21C [5e, 2-O-(2″,4″-Dimethoxycinnamoyl)salvinorin B]",>62,–,>62,–,–,–
"COC(=O)[C@@H]1C[C@H](OC(=O)/C=C/c2cc(OC)c(OC)c(OC)c2)C(=O)[C@H]2[C@@]1(C)CC[C@H]1C(=O)O[C@H](c3ccoc3)C[C@]21C [5f, 2-O-(3″,4″,5″-Trimethoxycinnamoyl)salvinorin B]",–,–,–,–,–,no appreciable affinity; also recorded: no substantial affinity
"COC(=O)[C@@H]1C[C@H](OC(=O)/C=C/c2ccc3c(c2)OCO3)C(=O)[C@H]2[C@@]1(C)CC[C@H]1C(=O)O[C@H](c3ccoc3)C[C@]21C [5g, 2-O-(3″,4″-Dioxymethylenecinnamoyl)salvinorin B]",>31,–,–,–,–,–
"COC(=O)[C@@H]1C[C@H](OC(=O)/C=C/c2ccccc2[N+](=O)[O-])C(=O)[C@H]2[C@@]1(C)CC[C@H]1C(=O)O[C@H](c3ccoc3)C[C@]21C [5h, 2-O-(2″-Nitrocinnamoyl)salvinorin B]",>67,–,>67,–,–,–
"COC(=O)[C@@H]1C[C@H](OC(=O)/C=C/c2ccc([N+](=O)[O-])cc2)C(=O)[C@H]2[C@@]1(C)CC[C@H]1C(=O)O[C@H](c3ccoc3)C[C@]21C [5i, 2-O-(4″-Nitrocinnamoyl)salvinorin B]",>35,–,>35,–,–,–
"COC(=O)[C@@H]1C[C@H](OC(=O)/C=C/c2ccccc2C(F)(F)F)C(=O)[C@H]2[C@@]1(C)CC[C@H]1C(=O)O[C@H](c3ccoc3)C[C@]21C [5j, 2-O-(2″-Trifluoromethylcinnamoyl)salvinorin B]",>77,–,>77,–,–,–
"COC(=O)[C@@H]1C[C@H](OC(=O)/C=C/c2cc(C(F)(F)F)ccc2C(F)(F)F)C(=O)[C@H]2[C@@]1(C)CC[C@H]1C(=O)O[C@H](c3ccoc3)C[C@]21C [5l, 2-O-[2″,5″-bis(Trifluoromethyl)cinnamoyl]salvinorin B]",<0.58,–,–,–,–,no substantial affinity
"COC(=O)[C@@H]1C[C@H](OC(=O)/C=C/c2cccnc2)C(=O)[C@H]2[C@@]1(C)CC[C@H]1C(=O)O[C@H](c3ccoc3)C[C@]21C [5m, 2-O-[3′-(3″-Pyridyl)acryloyl]salvinorin B]",<0.48,–,<0.03,–,–,no substantial affinity

# Biological target: hKOR receptor (Homo sapiens, UniProt P41145)
# Assay: cell-based
# Conditions: not given
# Sequence of hKOR receptor (P41145 whole entry): as above
SMILES,fold lower cAMP inhibition level (efficacy) than 1,IC50
"C=CC(=O)O[C@H]1C[C@@H](C(=O)OC)[C@]2(C)CC[C@H]3C(=O)O[C@H](c4ccoc4)C[C@]3(C)[C@H]2C1=O [4a, 2-O-Acryloylsalvinorin B]",380 ×,–
"COC(=O)[C@@H]1C[C@H](OC(=O)/C=C/c2ccccc2)C(=O)[C@H]2[C@@]1(C)CC[C@H]1C(=O)O[C@H](c3ccoc3)C[C@]21C [5a, 2-O-Cinnamoylsalvinorin B]",20 ×,7 nM

# Biological target: T1, κ-opioid receptor (KOR)
# Assay: not given
# Conditions: previously observed; cited from earlier work
row,SMILES,wash-resistant irreversible binding at KOR
1,"COC(=O)[C@@H]1C[C@H](OC(=O)CSC#N)C(=O)[C@H]2[C@@]1(C)CC[C@H]1C(=O)O[C@H](c3ccoc3)C[C@]21C [RB-64, 22-thiocyanatosalvinorin A]",wash-resistant irreversible binding
